Experimental data from ChEMBL document CHEMBL1201862, “PubChem BioAssay data set” (2004).
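Five concentrations, 48 hours, 96-well plates. The concentration for 50% growth inhibition is given as GI50.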 Activity calls are given as the source filed them. No stated cut-off is given here; in the data, active = GI50 up to about 1.1 µM and inactive = higher.

Assays:
Test in all cases: growth of human tumour cells (NCI), 48 h
786-0 = system: 786-0
A498 = system: A498
A549 = system: A549
ACHN = system: ACHN
BT-549 = system: BT-549
CAKI-1 = system: CAKI-1
CCRF-CEM = system: CCRF-CEM
COLO 205 = system: COLO 205
DU-145 = system: DU-145
EKVX = system: EKVX
HCC 2998 = system: HCC 2998
HCT-116 = system: HCT-116
HCT-15 = system: HCT-15
HL-60 = system: HL-60
HOP-62 = system: HOP-62
HOP-92 = system: HOP-92
HT-29 = system: HT-29
Hs-578T = system: Hs-578T
IGROV-1 = system: IGROV-1
K562 = system: K562
KM12 = system: KM12
LOX IMVI = system: LOX IMVI
M14 = system: M14
MCF7 = system: MCF7
MDA-MB-231 = system: MDA-MB-231
MDA-MB-435 = system: MDA-MB-435
MDA-N = system: MDA-N
MOLT-4 = system: MOLT-4
Malme-3M = system: Malme-3M
NCI-H226 = system: NCI-H226
NCI-H23 = system: NCI-H23
NCI-H460 = system: NCI-H460
NCI-H522 = system: NCI-H522
NCI/ADR-RES = system: NCI/ADR-RES
OVCAR-3 = system: OVCAR-3
OVCAR-4 = system: OVCAR-4
OVCAR-5 = system: OVCAR-5
OVCAR-8 = system: OVCAR-8
PC-3 = system: PC-3
RPMI-8226 = system: RPMI-8226
RXF 393 = system: RXF 393
SF-268 = system: SF-268
SF-295 = system: SF-295
SF-539 = system: SF-539
SK-MEL-2 = system: SK-MEL-2
SK-MEL-5 = system: SK-MEL-5
SK-OV-3 = system: SK-OV-3
SN12C = system: SN12C
SNB-19 = system: SNB-19
SNB-75 = system: SNB-75
SR = system: SR
SW-620 = system: SW-620
T47D = system: T47D
TK-10 = system: TK-10
U-251 = system: U-251
UACC-257 = system: UACC-257
UACC-62 = system: UACC-62
UO-31 = system: UO-31
SK-MEL-28 = system: SK-MEL-28

CCCCc1ccc(Nc2ncc3ncn(COCCO)c3n2)cc1
GI50 (786-0): 26.6 µM (inactive) | GI50 (A498): 46.6 µM (inactive) | GI50 (A549): 37.2 µM (inactive) | GI50 (ACHN): 26.1 µM (inactive) | GI50 (BT-549): 36.1 µM (inactive) | GI50 (CAKI-1): 49.1 µM (inactive) | GI50 (CCRF-CEM): 20.8 µM (inactive) | GI50 (COLO 205): 36.1 µM (inactive) | GI50 (DU-145): 33.3 µM (inactive) | GI50 (EKVX): 22.9 µM (inactive) | GI50 (HCC 2998): 20.3 µM (inactive) | GI50 (HCT-116): 21 µM (inactive) | GI50 (HCT-15): 34.9 µM | GI50 (HL-60): 23.8 µM (inactive) | GI50 (HOP-62): 26.6 µM (inactive) | GI50 (HOP-92): 25.8 µM (inactive) | GI50 (HT-29): 21.8 µM (inactive) | GI50 (Hs-578T): 20.8 µM (inactive) | GI50 (IGROV-1): 28.6 µM (inactive) | GI50 (K562): 14 µM (inactive) | GI50 (KM12): 27.3 µM (inactive) | GI50 (LOX IMVI): 17.9 µM (inactive) | GI50 (M14): 21.5 µM (inactive) | GI50 (MCF7): 28.5 µM (inactive) | GI50 (MDA-MB-231): 18.9 µM (inactive) | GI50 (MDA-MB-435): 29.4 µM (inactive) | GI50 (MDA-N): 32 µM (inactive) | GI50 (MOLT-4): 21.6 µM (inactive) | GI50 (Malme-3M): 23.1 µM (inactive) | GI50 (NCI-H226): 62.2 µM (inactive) | GI50 (NCI-H23): 27.7 µM (inactive) | GI50 (NCI-H460): 22.4 µM (inactive) | GI50 (NCI-H522): 34.1 µM (inactive) | GI50 (NCI/ADR-RES): 29 µM (inactive) | GI50 (OVCAR-3): 22.8 µM (inactive) | GI50 (OVCAR-4): 41.1 µM (inactive) | GI50 (OVCAR-5): 32.7 µM (inactive) | GI50 (OVCAR-8): 29 µM (inactive) | GI50 (PC-3): 27 µM (inactive) | GI50 (RPMI-8226): 16.4 µM (inactive) | GI50 (RXF 393): 26.8 µM (inactive) | GI50 (SF-268): 40.9 µM (inactive) | GI50 (SF-295): 27.3 µM (inactive) | GI50 (SF-539): 29.3 µM (inactive) | GI50 (SK-MEL-2): 25.2 µM (inactive) | GI50 (SK-MEL-5): 21.8 µM (inactive) | GI50 (SK-OV-3): 79.8 µM (inactive) | GI50 (SN12C): 46.2 µM (inactive) | GI50 (SNB-19): 44.3 µM (inactive) | GI50 (SNB-75): 24.8 µM (inactive) | GI50 (SR): 17.1 µM (inactive) | GI50 (SW-620): 47.9 µM (inactive) | GI50 (T47D): 28.4 µM (inactive) | GI50 (TK-10): 37.8 µM (inactive) | GI50 (U-251): 39.4 µM (inactive) | GI50 (UACC-257): 27.9 µM (inactive) | GI50 (UACC-62): 25.6 µM (inactive) | GI50 (UO-31): 21.1 µM (inactive)

CN1CCN(C2=C(Cl)C(=O)c3c(O)ccc(O)c3C2=O)CC1
GI50 (786-0): 0.244 µM (active) | GI50 (A498): 2.52 µM (inactive) | GI50 (A549): 2.16 µM (inactive) | GI50 (ACHN): 0.286 µM (active) | GI50 (BT-549): 0.486 µM (active) | GI50 (CAKI-1): 0.546 µM (active) | GI50 (CCRF-CEM): 0.105 µM (active) | GI50 (COLO 205): 0.182 µM (active) | GI50 (DU-145): 1.78 µM (inactive) | GI50 (EKVX): 1.66 µM (inactive) | GI50 (HCC 2998): 2.04 µM (inactive) | GI50 (HCT-116): 0.234 µM (active) | GI50 (HCT-15): 0.176 µM | GI50 (HL-60): 0.103 µM (active) | GI50 (HOP-62): 1.92 µM (inactive) | GI50 (HOP-92): 0.223 µM (active) | GI50 (HT-29): 0.359 µM (active) | GI50 (Hs-578T): 2.41 µM (inactive) | GI50 (IGROV-1): 1.3 µM (inactive) | GI50 (K562): 0.217 µM (active) | GI50 (KM12): 1.99 µM (inactive) | GI50 (LOX IMVI): 0.635 µM (active) | GI50 (M14): 0.281 µM (active) | GI50 (MCF7): 0.24 µM (active) | GI50 (MDA-MB-231): 0.516 µM (active) | GI50 (MDA-MB-435): 0.214 µM (active) | GI50 (MDA-N): 0.35 µM (active) | GI50 (MOLT-4): 0.13 µM (active) | GI50 (Malme-3M): 0.196 µM (active) | GI50 (NCI-H226): 2 µM (inactive) | GI50 (NCI-H23): 0.61 µM (active) | GI50 (NCI-H460): 1.94 µM (inactive) | GI50 (NCI-H522): 0.243 µM (active) | GI50 (NCI/ADR-RES): 0.632 µM (active) | GI50 (OVCAR-3): 0.542 µM (active) | GI50 (OVCAR-4): 0.377 µM (active) | GI50 (OVCAR-5): 1.58 µM (inactive) | GI50 (OVCAR-8): 0.223 µM (active) | GI50 (PC-3): 1.73 µM (inactive) | GI50 (RPMI-8226): 1.44 µM (inactive) | GI50 (RXF 393): 0.18 µM (active) | GI50 (SF-268): 1.85 µM (inactive) | GI50 (SF-295): 1.78 µM (inactive) | GI50 (SF-539): 0.959 µM (active) | GI50 (SK-MEL-28): 0.995 µM (active) | GI50 (SK-MEL-2): 1.21 µM (inactive) | GI50 (SK-MEL-5): 0.502 µM (active) | GI50 (SK-OV-3): 5.62 µM (inactive) | GI50 (SN12C): 0.826 µM (active) | GI50 (SNB-19): 4.99 µM (inactive) | GI50 (SNB-75): 2.03 µM (inactive) | GI50 (SR): 0.094 µM (active) | GI50 (SW-620): 0.187 µM (active) | GI50 (T47D): 0.551 µM (active) | GI50 (TK-10): 0.514 µM (active) | GI50 (U-251): 1.72 µM (inactive) | GI50 (UACC-257): 0.689 µM (active) | GI50 (UACC-62): 1.32 µM (inactive) | GI50 (UO-31): 0.646 µM (active)
